According to paper PMC7346113, “Screening of Natural Stilbene Oligomers from Vitis vinifera for Anticancer Activity on Human Hepatocellular Carcinoma Cells” (Antioxidants, 2020):

Assays:
Type in all cases: cell-based, human
HepG2 [1] = assay: Cell viability, crystal violet assay, HepG2; conditions: mean ± standard error
Description: (§1) The human hepatoma cell line HepG2 was obtained from the American Tissue Culture Collection (ATCC, Manassas, VA, USA). The human hepatoma cell line Hep3B was obtained from the European Collection of Authenticated Cell Cultures (ECACC, Porton Down, Salisbury, Wiltshire, UK). HH4 non-transformed human hepatocyte cell line (kindly provided by Dr. I. Fabregat, Molecular Oncology, Bellvitge Biomedical Research Institute, Spain) was established as described.
(§2) HepG2 and Hep3B cell lines were maintained in Eagle’s Minimum Essential Medium and HH4 cell line was grown in Ham´s F12 Nutrient Mixture (Sigma-Aldrich, St Louis, MO, USA). Both culture media were supplemented with 10% heat inactivated fetal bovine serum, 2 mM L-glutamine and antibiotics (0.1 mg/mL streptomycin and 100 U/mL penicillin) (Sigma-Aldrich, St Louis, MO, USA). Cell cultures were grown in an incubator at 37 °C with 5% CO2 atmosphere. After reaching approximately 80% of confluence, cells were detached in a solution of 0.1% trypsin and 0.04% EDTA and plated as required for further experiments.
(§3) Cell lines were seeded into 96-well plates at 5 × 10^3 (HepG2) and 3 × 10^3 (Hep3B and HH4) cells/well 24 h before treatment. Increasing concentrations of the monomer trans-resveratrol, the dimers ampelopsin A and trans-ε-viniferin and the tetramers isohopeaphenol, hopeaphenol, R2-viniferin and R-viniferin were then added and cells were incubated for 24, 48, and 72 h. Stilbenes were dissolved in dimethyl sulfoxide (DMSO), Sigma-Aldrich, St Louis, MO, USA) at a final concentration of 0.01%. The same amount of DMSO was added to control cells. After treatment, the cell viability was determined using the crystal violet assay. The absorbance was recorded at 590 nm in a Synergy HT microplate reader (BioTek, Winooski, VT, USA). Cell viability was calculated as the percentage of viable cells treated with stilbene versus untreated control cells using the following equation: Cell viability (%) = [OD (Treatment) − OD (Blank)]/[OD (Control) − OD (Blank)] × 100. The cytotoxic effect of stilbenes was determined by calculating IC50 values using non-linear regression analysis (GraphPad Prism 6, San Diego, CA, USA).
(§4) The statistical package SPSS 19.0 (SPSS Inc. Chicago, IL, USA) was used for data analysis. The results were expressed as mean ± standard error (SE) from at least three experiments. Statistical significance for the differences of the means was estimated by parametric Student’s t-test. Differences between means were considered statistically significant for p < 0.05. IC50 values were derived from fitting the data to a sigmoidal dose-response curve with a three-parameter logistic model using Graph Pad Prism 6.

Hep3B [2] = assay: Cell viability, crystal violet assay, Hep3B; conditions: mean ± standard error
Description: as §1, §2, §3, §4

HH4 = assay: Cell viability, crystal violet assay, HH4 non-transformed hepatocytes; conditions: Homo sapiens, Hepatocyte, mean ± standard error
Description: as §1, §2, §3, §4

HepG2 [3] = assay: Cell cycle analysis by flow cytometry (propidium iodide), HepG2; conditions: HepG2, 10 µM, mean ± SE
Method: (§5) Exponentially growing cells were seeded in 6-wells plates (200,000 cells HepG2 and 180,000 cells Hep3B) 24 h before R2-viniferin treatment. On the day of treatment, the culture medium was replaced with culture medium containing R2-viniferin or vehicle solution (control).
(§6) After a treatment, cells were detached by trypsinization and fixed overnight at 4 °C in 70% ice-cold ethanol diluted in phosphate buffer saline (PBS). The ethanol was then discarded and the cells were washed with ice-cold PBS and finally stained with 25 μg/mL of propidium iodide (Sigma-Aldrich, St Louis, MO, USA) in the presence of 200 μg/mL ribonuclease A (Roche Biochemicals, Indianapolis, IN, USA) for 30 min at room temperature in the dark. Flow cytometry analysis (Beckman Coulter Gallios) was carried out from a total number of 10,000 events acquired in the General Research Services SGIker of the UPV/EHU. Analysis of the data was performed using Summit 4.3 software (Dako, Glostrup, Hovedstaden, Denmark).

Hep3B [4] = assay: Cell cycle analysis by flow cytometry (propidium iodide), Hep3B; conditions: 10 µM; for Cell cycle G0/G1 (percentage of cells) / Cell cycle G2/M (percentage of cells) / Cell cycle S (percentage of cells) / SubG0 (percentage of total cells): mean ± SE
Method: as §5, §6

[5] = tested on: mitochondrial O2- in HepG2; assay: Mitochondrial O2- levels, MitoSOX probe, flow cytometry; conditions: HepG2, 5 and 10 µM, any of the doses or times assayed
Method: The mitochondrial superoxide anion (O2^−) levels were measured using MitoSOX™Red reagent (Molecular Probes, Eugene, OR, USA), which permeates living cells where it selectively targets mitochondria and is oxidized by superoxide.
HepG2 cells were cultured in a 6-well cell culture plate at a density of 2 × 10^5 cells per well 24 h before starting the treatment with R2-viniferin. The medium was renewed and cells were incubated with R2-viniferin as described above. After treatment, cells were washed and incubated with 20 μM H2DCF-DA or 4 μM MitoSOX™ for 30 min at 37 °C in the dark. The probe solution was then withdrawn and, after washing with PBS, the cells were trypsinized. The fluorescence intensity from living cells was measured by flow cytometry (DCF λex = 485/20 and λem = 528/20, MitoSOX λex = 485/20 and λem = 620/20) in a Beckman Coulter Gallios Flow cytometer in the General Research Services SGIker of the UPV/EHU. At least 10,000 events were detected. Data obtained from flow cytometry were analyzed using Summit 4.3 software (Dako, Hovedstaden, Denmark). Intracellular ROS and mitochondrial O2^− were expressed as the percentage of the fluorescence intensity in control cells at the same time of incubation.

## Oc1ccc([C@H]2c3c(O)cc(O)cc3[C@H]3c4c(cc(O)cc4[C@@H]2c2cc(/C=C/c4cc(O)cc5c4[C@H](c4cc(O)cc(O)c4)[C@@H](c4ccc(O)cc4)O5)ccc2O)O[C@@H]3c2ccc(O)cc2)cc1 [R2-Viniferin]
HepG2 [1]; 72 h
  IC50: 9.7 ± 0.4 µM
HepG2 [1]; Homo sapiens, HepG2, 24 h, 24 h
  IC50: > 200 µM
HepG2 [1]; Homo sapiens, HepG2, 48 h, 48 h
  IC50: 10.2 ± 8.2 µM
HepG2 [1]; Homo sapiens, HepG2, 72 h, 72 h
  IC50: < 10 µM
Hep3B [2]; 72 h
  IC50: 47.8 ± 2.8 µM
Hep3B [2]; Homo sapiens, Hep3B, 24 h
  IC50: > 200 µM
Hep3B [2]; Homo sapiens, Hep3B, 48 h
  IC50: 43.9 ± 3.6 µM
Hep3B [2]; Homo sapiens, Hep3B, 72 h
  IC50: 48 µM
HH4; 24 h
  IC50: > 200 µM
HH4; 48 h
  IC50: > 200 µM
HH4; 72 h
  IC50: > 200 µM
HepG2 [3]; 24 h
  Cell cycle G0/G1 (percentage of cells): 65.6 ± 11.7%
  Cell cycle G2/M (percentage of cells): 22.5 ± 8.5%
  Cell cycle S (percentage of cells): 11.9 ± 3.2%
  SubG0 (percentage of total cells): 8.5 ± 2.7%
HepG2 [3]; 48 h
  Cell cycle G0/G1 (percentage of cells): 71.7 ± 10.9%
  Cell cycle G2/M (percentage of cells): 19.3 ± 6.5%
  Cell cycle S (percentage of cells): 9.0 ± 4.5%
  SubG0 (percentage of total cells): 22.4 ± 11.0%
HepG2 [3]; 72 h
  Cell cycle G0/G1 (percentage of cells): 75.5 ± 7.8%
  Cell cycle G2/M (percentage of cells): 15.0 ± 2.2%
  Cell cycle S (percentage of cells): 9.5 ± 5.6%
  SubG0 (percentage of total cells): 71.0 ± 2.1%
Hep3B [4]
  Effect on cell cycle: did not alter cell cycle
Hep3B [4]; 24 h
  Cell cycle G0/G1 (percentage of cells): 63.6 ± 8.0%
  Cell cycle G2/M (percentage of cells): 20.7 ± 6.1%
  Cell cycle S (percentage of cells): 15.7 ± 3.7%
  SubG0 (percentage of total cells): 2.0 ± 0.6%
Hep3B [4]; 48 h
  Cell cycle G0/G1 (percentage of cells): 73.7 ± 3.4%
  Cell cycle G2/M (percentage of cells): 16.5 ± 2.0%
  Cell cycle S (percentage of cells): 10.4 ± 1.6%
  SubG0 (percentage of total cells): 1.8 ± 0.4%
Hep3B [4]; 72 h
  Cell cycle G0/G1 (percentage of cells): 75.5 ± 3.9%
  Cell cycle G2/M (percentage of cells): 14.7 ± 2.9%
  Cell cycle S (percentage of cells): 9.8 ± 1.2%
  SubG0 (percentage of total cells): 3.3 ± 0.7%
[5]
  Effect on mitochondrial O2-: no significant effect
